Patent US6465196B1, “Drug screen for identifying an agent that modulates low density lipoprotein receptor adaptin-ligand binding” (Board of Regents, The University of Texas System, priority 2001, dated 2002)

System: a strand of SEQ ID NO:1
Assay: Specific hybridization of LDLR adaptin domain-encoding polynucleotides under stringent conditions
Format: binding, human
Parameters: key: +: hybridize with a strand of SEQ ID NO:1 under Conditions I and/or II
Conditions: CC domain encoding polynucleotides; Conditions I and/or II
From the text: These natural sequence LDLR adaptin polynucleotides provide hybridization probes and replication/amplification primers having a disclosed LDLR adaptin domain encoding cDNA sequence or fragments thereof sufficient to effect specific hybridization thereto. Such primers or probes are at least 12, preferably at least 24, more preferably at least 36 and most preferably at least 96 bases in length.

With “SEQ ID NO:1, nucleotides 742-770: LDLR adaptin CC domain encoding polynucleotide (DNA GTCTGGGAGCTGGATGATGGCCTGGATGA; chemistry not given here)” as the substance, how does the Hybridization read?
Its Hybridization is “+”.

How did the Hybridization turn out when “SEQ ID NO:1, nucleotides 775-789: LDLR adaptin CC domain encoding polynucleotide (DNA TTTTCGAGGCTTGCC; chemistry not given here)” was run?
Its Hybridization is “+”.

Which Hybridization does the source give for “SEQ ID NO:1, nucleotides 784-809: LDLR adaptin CC domain encoding polynucleotide (DNA CTTGCCCAGTCTCGGACAAACCCTCA; chemistry not given here)” here?
Its Hybridization is “+”.

Which Hybridization does the source give for “SEQ ID NO:1, nucleotides 799-824: LDLR adaptin CC domain encoding polynucleotide (DNA ACAAACCCTCAGGTCCTGGACACTGG; chemistry not given here)” here?
Its Hybridization is “+”.

“SEQ ID NO:1, nucleotides 801-828: LDLR adaptin CC domain encoding polynucleotide (DNA AAACCCTCAGGTCCTGGACACTGGCCTG; chemistry not given here)” was tested. Which Hybridization did it give?
The Hybridization was “+”.

Same assay, conditions: PTB domain encoding polynucleotides; Conditions I and/or II

With “SEQ ID NO:1, nucleotides 142-164: LDLR adaptin PTB domain encoding polynucleotide (DNA TTCAGCCTCAAGTACCTGGGCAT; chemistry not given here)” as the substance, how does the Hybridization read?
Its Hybridization is “+”.

How did the Hybridization turn out when “SEQ ID NO:1, nucleotides 185-218: LDLR adaptin PTB domain encoding polynucleotide (DNA AGGGTGAGGAGCTGTCGGCCGCCGCCATCAAGAG; chemistry not given here)” was run?
Its Hybridization is “+”.

“SEQ ID NO:1, nucleotides 249-272: LDLR adaptin PTB domain encoding polynucleotide (DNA GAAGCTGCAGAAGGTGACTCTGAA; chemistry not given here)” was tested. Which Hybridization did it give?
Its Hybridization is “+”.

With “SEQ ID NO:1, nucleotides 263-286: LDLR adaptin PTB domain encoding polynucleotide (DNA TGACTCTGAAGGTGTCGCCACGGG; chemistry not given here)” as the substance, how does the Hybridization read?
The Hybridization was “+”.

With “SEQ ID NO:1, nucleotides 297-320: LDLR adaptin PTB domain encoding polynucleotide (DNA GACAGACAACCTCACCAACCAGCT; chemistry not given here)” as the substance, how does the Hybridization read?
The Hybridization was “+”.

Which Hybridization does the source give for “SEQ ID NO:1, nucleotides 321-344: LDLR adaptin PTB domain encoding polynucleotide (DNA CATTGAGAACGTGTCCATATACAG; chemistry not given here)” here?
The Hybridization was “+”.

With “SEQ ID NO:1, nucleotides 345-368: LDLR adaptin PTB domain encoding polynucleotide (DNA GATCTCCTATTGCACAGCAGACAA; chemistry not given here)” as the substance, how does the Hybridization read?
The Hybridization was “+”.

Which Hybridization does the source give for “SEQ ID NO:1, nucleotides 369-392: LDLR adaptin PTB domain encoding polynucleotide (DNA GATGCACGACAAGGTGTTTGCATA; chemistry not given here)” here?
The Hybridization was “+”.

Which Hybridization does the source give for “SEQ ID NO:1, nucleotides 393-416: LDLR adaptin PTB domain encoding polynucleotide (DNA CATCGCCCAGAGCCAGCACAACCA; chemistry not given here)” here?
The Hybridization was “+”.

For “SEQ ID NO:1, nucleotides 417-440: LDLR adaptin PTB domain encoding polynucleotide (DNA GAGCCTCGAGTGCCACGCCTTCCT; chemistry not given here)”, which Hybridization is on record?
Its Hybridization is “+”.

How did the Hybridization turn out when “SEQ ID NO:1, nucleotides 442-465: LDLR adaptin PTB domain encoding polynucleotide (DNA TGCACCAAGCGGAAGATGGCACAG; chemistry not given here)” was run?
The Hybridization was “+”.

For “SEQ ID NO:1, nucleotides 491-511: LDLR adaptin PTB domain encoding polynucleotide (DNA CCTTCAAAGTCGCCTTTGAGT; chemistry not given here)”, which Hybridization is on record?
The Hybridization was “+”.

How did the Hybridization turn out when “SEQ ID NO:1, nucleotides 511-525: LDLR adaptin PTB domain encoding polynucleotide (DNA TTTTGGCAGGTGTCC; chemistry not given here)” was run?
Its Hybridization is “+”.

Target: T1, GST-PTB domain fusion protein (Homo sapiens, UniProt Q5SW96)
T1 construct: made in house
T1 sequence (Q5SW96 48-175): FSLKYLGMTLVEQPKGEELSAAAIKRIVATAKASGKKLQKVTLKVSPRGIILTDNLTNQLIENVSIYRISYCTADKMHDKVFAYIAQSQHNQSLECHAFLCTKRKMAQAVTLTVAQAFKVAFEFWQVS
Assay: Fluorescence polarization binding of fluorescent LDLR peptide probe to the PTB domain
Conditions: after 5 min at 4° C.
Protocol: Peptide binding to the GST-PTB domain fusion protein is measured by using fluorescence polarization (also known as fluorescence anisotropy; Li, et al. 1997 Proc. Natl. Acad. Sci. USA 94:7204-7209) is a protocol adapted from Howell et al. 1999 Mol Cell Biol 19, 5179-5188. A16-mer LDLR peptide (acetyl-SINFDNPVYQKTTEDE-amide, residues 820-835 of SEQ ID NO:8) and its phosphorylated analog (phosphate on the tyrosine) are synthesized with an AMS 222 Multiple Peptide Synthesizer using TenetaGel S resin (Rapp Polymere) and purified by high-pressure liquid chromatography. Peptide concentrations are determined by spectrophotometry and confirmed by amino acid analysis. […] Reactions are stopped with 5 μmol of Tris HCl (pH 8.0) and analyzed by thin-layer chromatography (Silica gel 60; methanol-acetic acid-water [4:1:1]). […] Based on fluorescence intensity, the fluorescent peptide (probe) concentration in binding reaction mixtures was estimated to be 20 nM.
Binding measurements are performed in a Beacon 2000 Variable Temperature Fluorescence Polarization System (PanVera Corporation). Essentially, a constant concentration of fluorescent probe peptide is incubated with various concentrations of the GST-PTB domain or GST in 100 μl of 0.5% Triton X-100-20 mM glutathione-200 mM Tris HCl (pH 8.0) at 4° C. and fluorescence polarization is measured. […]

With “acetyl-SINFDNPVYQKTTEDE-amide (Ac-SINFDNPVYQKTTEDE-NH2; also: fluorescein-C6 label, site not given here) [fluorescent probe peptide]” as the substance, how does the “Binding, percent of maximum” value read?
Its value is 95%.

Same assay, conditions: linear Hill plot, noncooperative binding

How did the Hill plot slope turn out when “acetyl-SINFDNPVYQKTTEDE-amide (Ac-SINFDNPVYQKTTEDE-NH2; also: fluorescein-C6 label, site not given here) [fluorescent probe peptide]” was run?
Its Hill plot slope is 1.0.
